Patent US11560366B2, “Bicyclo[1.1.1]pentane inhibitors of dual leucine zipper (DLK) kinase for the treatment of disease” (Board of Regents, The University of Texas System, priority 2019, dated 2023)

Experiments:
[1] = Mouse pharmacokinetics, single dose; type: in vivo, male C57BL/6 mice; conditions: for Kp / unbound brain-to-plasma ratio (Kp,uu): male, C57BL/6, mouse, brain and plasma, po, 10 mg/kg, based on AUC; for Kp / unbound brain-to-plasma ratio (Kp,uu) / clearance / half-life / Vd / AUC(0-t) / Cmax / bioavailability: male C57BL/6 mice; for Kp / unbound brain-to-plasma ratio (Kp,uu) / AUC(0-t) / Cmax / bioavailability: oral dose 10 mg/kg; for Kp: read-out: Brain/Plasma Ratio; for unbound brain-to-plasma ratio (Kp,uu): read-out: Free Brain/Plasma Ratio; for clearance / half-life / Vd / AUC(0-t) / Cmax / bioavailability: mouse; for clearance / half-life / Vd: in vivo, IV dose 0.3 mg/kg (1a, 4b, 13, 14b, 16; IV dose of 8a, 9b not stated); for Vd: read-out: Vss; for AUC(0-t) / Cmax / bioavailability: plasma; for clearance in mice, comparison in words / half-life in mice, comparison in words: relative to comparator compounds 13 or 14b
[2] = biological target: human DLK (Homo sapiens (Human), UniProt Q12852); assay: DLK Kd determination (KINOMEscan KdELECT, DiscoveRx); type: binding; conditions: read-out: Kd
Procedure: The DLK dissociation constants (Kd) have been determined in the KINOMEscan KdELECT Service at DiscoveRx.
A fusion protein of full length of human DLK (amino acids 1-859) and the DNA binding domain of NFkB was expressed in transiently transfected HEK293 cells. From these HEK 293 cells, extracts were prepared in M-PER extraction buffer (Pierce) in the presence of Protease Inhibitor Cocktail Complete (Roche) and Phosphatase Inhibitor Cocktail Set II (Merck) per manufacturers' instructions. The DLK fusion protein was labeled with a chimeric double-stranded DNA tag containing the NFkB binding site (5′-[sequence]-3′, SEQ ID NO:1) fused to an amplicon for qPCR readout, which was added directly to the expression extract (the final concentration of DNA-tag in the binding reaction is 0.1 nM).
The liganded beads were blocked with excess biotin and washed with blocking buffer (SeaBlock (Pierce), 1% BSA, 0.05% Tween 20, 1 mM DTT) to remove unbound ligand and to reduce nonspecific binding.
Extracts were used directly in binding assays without any enzyme purification steps at a >10,000-fold overall stock dilution (final DNA-tagged enzyme concentration <0.1 nM). Extracts were loaded with DNA-tag and diluted into the binding reaction in a two step process. First extracts were diluted 1:100 in 1× binding buffer (PBS/0.05% Tween 20/10 mM DTT/0.1% BSA/2 μg/ml sonicated salmon sperm DNA) containing 10 nM DNA-tag. This dilution was allowed to equilibrate at room temperature for 15 minutes and then subsequently diluted 1:100 in 1× binding buffer. Test compounds were prepared as 111× stocks in 100% DMSO. Kds were determined using an 11-point 3-fold compound dilution series with three DMSO control points. […] The compounds were then diluted directly into the assays such that the final concentration of DMSO was 0.9%. All reactions performed in polypropylene 384-well plates. Each was a final volume of 0.02 mL. Assays were incubated with shaking for 1 hour at room temperature. Then the beads were pelleted and washed with wash buffer (1×PBS, 0.05% Tween 20) to remove displaced kinase and test compound. […] The kinase concentration in the eluates was measured by qPCR. qPCR reactions were assembled by adding 2.5 μL of kinase eluate to 7.5 μL of qPCR master mix containing 0.15 μM amplicon primers and 0.15 μM amplicon probe.
Test compounds were prepared as 111× stocks in 100% DMSO. Kds were determined using an 11-point 3-fold compound dilution series with three DMSO control points. […] The compounds were then diluted directly into the assays such that the final concentration of DMSO was 0.9%. The Kds were determined using a compound top concentration of 30,000 nM. Kd measurements were performed in duplicate.
Binding constants (Kds) were calculated with a standard dose-response curve using the Hill equation:
The Hill Slope was set to −1.

[3] = Metabolic stability in liver microsomes, human; type: in vitro ADME; conditions: 0.5 mg/mL microsomes, NADPH, 45 minutes, 37° C., read-out: Half-life in liver microsomes (t1/2, minutes)
Procedure: (§1) The test compound was incubated with liver microsomes (0.5 mg/mL) from CD-1 mouse, Sprague Dawley rat, Beagle dog, Cynomolgus monkey, and human in the presence of NADPH for 45 minutes at 37° C. The % parent remaining over time was determined by LC-MS/MS, using peak area ratios. Half-life (t1/2) was calculated using the following equation: t1/2=ln2/k, where k is the rate constant of parent decay over time (slope of the plot of log[% parent remaining] versus time).

[4] = Metabolic stability in liver microsomes, rat; type: in vitro ADME; conditions: Sprague Dawley, 0.5 mg/mL microsomes, NADPH, 45 minutes, 37° C., read-out: Half-life in liver microsomes (t1/2, minutes)
Procedure: as §1

[5] = Rat pharmacokinetics, single dose; type: in vivo, Wistar Han rats; conditions: for clearance / half-life / Vd / AUC(0-t) / Cmax / bioavailability: rat, in vivo, Wistar Han rats; for clearance / half-life / Vd: IV dose 1 mg/kg; for Vd: read-out: Vss; for AUC(0-t) / Cmax / bioavailability: oral dose 3 mg/kg; for clearance in rats, comparison in words / half-life in rats, comparison in words: relative to comparator compound 13
Procedure: Pharmacokinetics for compounds 13, 1a, and 9b were determined using single dosage of Wistar Han rats using techniques that are well known in the art.

[6] = Metabolic stability in liver microsomes, mouse; type: in vitro ADME, CD-1 mouse; conditions: CD-1, liver microsomes, 0.5 mg/mL microsomes, NADPH, 45 minutes, 37° C., read-out: Half-life in liver microsomes (t1/2, minutes)
Procedure: as §1

[7] = Metabolic stability in liver microsome preparations, overall comparison; type: in vitro ADME; conditions: relative to comparator compounds 13 or 14/14b (WO2018207072)
Procedure: as §1

[8] = Metabolic stability in liver microsomes, monkey; type: in vitro ADME, Cynomolgus monkey; conditions: 0.5 mg/mL microsomes, NADPH, 45 minutes, 37° C., read-out: Half-life in liver microsomes (t1/2, minutes)
Procedure: as §1

[9] = Metabolic stability in liver microsomes, dog; type: in vitro ADME; conditions: Beagle, 0.5 mg/mL microsomes, NADPH, 45 minutes, 37° C., read-out: Half-life in liver microsomes (t1/2, minutes)
Procedure: as §1

Chain of human DLK (Q12852 whole entry): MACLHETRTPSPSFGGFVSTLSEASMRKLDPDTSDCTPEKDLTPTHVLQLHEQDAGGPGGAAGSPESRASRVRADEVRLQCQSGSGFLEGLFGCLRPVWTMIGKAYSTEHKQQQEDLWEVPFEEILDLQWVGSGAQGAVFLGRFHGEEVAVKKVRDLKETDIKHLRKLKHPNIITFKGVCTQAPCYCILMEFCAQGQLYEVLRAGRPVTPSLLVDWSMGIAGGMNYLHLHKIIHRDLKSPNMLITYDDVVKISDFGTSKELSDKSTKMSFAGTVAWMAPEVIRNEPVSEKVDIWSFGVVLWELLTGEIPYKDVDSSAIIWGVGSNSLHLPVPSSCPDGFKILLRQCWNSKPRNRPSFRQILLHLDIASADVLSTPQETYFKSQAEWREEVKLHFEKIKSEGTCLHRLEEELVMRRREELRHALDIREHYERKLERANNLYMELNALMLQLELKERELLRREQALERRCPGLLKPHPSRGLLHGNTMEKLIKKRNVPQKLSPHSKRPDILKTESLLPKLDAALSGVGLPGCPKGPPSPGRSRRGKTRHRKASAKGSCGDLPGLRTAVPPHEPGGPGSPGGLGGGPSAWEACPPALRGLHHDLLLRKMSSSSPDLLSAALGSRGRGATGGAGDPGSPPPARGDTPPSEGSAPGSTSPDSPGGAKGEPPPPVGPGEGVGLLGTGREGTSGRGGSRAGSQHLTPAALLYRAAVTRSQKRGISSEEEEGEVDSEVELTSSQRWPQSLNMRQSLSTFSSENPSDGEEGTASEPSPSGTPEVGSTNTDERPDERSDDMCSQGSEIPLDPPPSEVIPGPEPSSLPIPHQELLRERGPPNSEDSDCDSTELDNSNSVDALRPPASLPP

SMILES | Kp [1] | unbound brain-to-plasma ratio (Kp,uu) [1] | clearance [1] | half-life [1] | Vd [1] | AUC(0-t) [1] | Cmax [1] | bioavailability [1] | clearance in mice, comparison in words [1] | half-life in mice, comparison in words [1] | Kd [2] | half-life [3] | half-life [4] | clearance [5] | half-life [5] | Vd [5] | AUC(0-t) [5] | Cmax [5] | bioavailability [5] | clearance in rats, comparison in words [5] | other results
Nc1ncc(-c2cn(C34CC(F)(C3)C4)c([C@@H](O)C(F)(F)F)n2)cc1OC(F)(F)F (single isomer, unassigned) [Example 1a] | 1.77 | 0.92 | 4.3 mL/min/kg | 12.7 h | 4.5 L/kg | 111 µM·h | 6360 nM | 154% | reduced clearance | longer half-life | 2.2 nM | 558 min | 154 min | 5.9 mL/min/kg | 11.5 h | 4.9 L/kg | 16.8 µM·h | 1310 nM | 103% | reduced clearance | half-life in rats, comparison in words [5]: longer half-life; half-life [6]: 378 min; microsomal stability, comparison in words [7]: improvements to microsomal stability; half-life [8]: 182 min; half-life [9]: 287 min
Nc1ncc(-c2cn(C34CC(N5CCC(F)(F)CC5)(C3)C4)c([C@H](O)C(F)(F)F)n2)cc1OC(F)(F)F (single isomer, unassigned) [Example 9b] | 0.7 | 0.31 | 3.9 mL/min/kg | 15.9 h | 4.8 L/kg | 39.6 µM·h | 2310 nM | 70.5% | reduced clearance | longer half-life | 1 nM | 297 min | 581 min | 2.8 mL/min/kg | 22.7 h | 4.7 L/kg | 19.2 µM·h | 1050 nM | 95.9% | reduced clearance | half-life in rats, comparison in words [5]: longer half-life; half-life [6]: 240 min; microsomal stability, comparison in words [7]: improvements to microsomal stability; half-life [8]: 331 min; half-life [9]: 240 min
